We go through 105 molecules from a flash point compilation (Sun et al. 2020).

The molecule `C=CC=CO[Si](C)(C)C` [1-(Trimethylsiloxy)-1,3-butadiene] had a flash point of 25.00 °C. `CCCCCC#C[Si](C)(C)C` [1-Heptynyltrimethylsilane] had a flash point of 42.00 °C. `CCCCC=C[Si](Cl)(Cl)Cl` [1-Hexenyltrichlorosilane]: the flash point is 60.00 °C. `CO[Si](CCC1CCC2OC2C1)(OC)OC` (stereo not drawn) [2-(3,4-epoxycyclohexyl)ethyltrimethoxysilane] displayed a flash point of 146.00 °C. Consider `CC(CCl)C[Si](C)(Cl)Cl` (stereo not drawn) [3-Chloro-2-methylpropylmethyldichlorosilane], for which the flash point amounted to 90.00 °C. The same measure, in the same setting: as for `CO[Si](C)(CCCCl)OC` [3-Chloropropylmethyldimethoxysilane], the figure is 45.00 °C; as for `C=C(C)C(=O)OCCC[Si](OC)(OC)OC` [3-Methacryloxypropyltrimethoxysilane], 92.00 °C. On to `C=CC=CC[Si](C)(C)C` [(2,4-Pentadienyl)trimethylsilane], for which the flash point was found to be 18.00 °C. Still for that read-out and setting: in the case of `C[Si](C)(C)OC1=CCCC1` [(Cyclopentenyloxy)trimethylsilane] it was 38.00 °C; in that of `CCN(CC)[Si](C)(C)C` [(Diethylamino)trimethylsilane], 10.00 °C. Still for that read-out and setting: as for `CO[Si](CCCNCCN)(OC)OC` [Aminoethylaminopropyltrimethoxysilane], the figure is 96.00 °C; as for `C[Si](C)(C)Cc1ccccc1` [Benzyltrimethylsilane], 62.00 °C. Same read-out and setting: in the case of `CCN(CC)[Si](C)(C)N(CC)CC` [Bis(diethylamino)dimethylsilane] it was 35.00 °C.

The source holds these as a separate data set.
As for `CCC[Si](OC)(OC)OC` [n-Propyltrimethoxysilane], the flash point came out at 25.00 °C. Regarding `C[Si](C)(C)c1ccc(Cl)cc1` [p-Chlorophenyltrimethylsilane], the flash point turned out to be 49.00 °C. Molecule `CCCC(C)[Si](Cl)(Cl)Cl` (stereo not drawn) [sec-Amyltrichlorosilane] showed a flash point of 30.00 °C. For `CC(C)(C)O[Si](C)(C)C` [t-Butoxytrimethylsilane], the flash point is 14.00 °C. Molecule `CC(C)(C)[Si](C)(C)Cl` [t-Butyldimethylchlorosilane] came in with a flash point of 22.00 °C.

Regarding `CC(C)(C)[Si](C)(C)O` [t-Butyldimethylsilanol], the flash point was determined as 45.00 °C. For `CC(C)(C)[Si](Cl)(Cl)Cl` [t-Butyltrichlorosilane], the flash point worked out at 21.00 °C.

The source holds these as a separate data set.
`Cc1ccc(C)c(C)c1` [1,2,4-TRIMETHYL BENZENE]: the flash point is 45.5 °C. The same measure, in the same setting: in the case of `CCc1ccccc1CC` [1,2-Diethylbenzene] it was 57.2 °C; in that of `COCCOC` [1,2-Dimethoxyethane], -1.6 °C.

As to `NCCN` [1,2-Ethanediamine], the flash point was 38 °C.

As to `Cc1cccc(C)c1` [1,3-Dimethylbenzene], the flash point is 25.0 °C.

For the molecule `CCc1ccc(CC)cc1` [1,4-Diethylbenzene], the flash point was determined as 57 °C. In turn, `Cc1ccc(C)cc1` [1,4-Dimethylbenzene] returned a flash point of 26 °C. The same measure, in the same setting: in the case of `NCCCCCCN` [1,6-Hexanediamine] it was 81.0 °C. Turning to `CCC(C)CO` (stereo not drawn) [1-Butanol, 2-methyl-], the flash point was determined as 43.0 °C.

Consider `C=CC(C)(C)C` [1-Butene, 3,3-dimethyl-], for which the flash point was -31.9 °C. Regarding `CCCCCCCCCCCCO` [1-DODECANOL], the flash point came to 125 °C. `C=CCCCCCCCCCC` [1-DODECENE]: the flash point worked out at 67 °C. Take `C=CCCCCCCCC` [1-Decene]: the flash point amounted to 47.0 °C.

`C=CCCCC` [1-HEXENE]: the flash point was -31 °C. Take `CCCCCCCS` [1-Heptanethiol]: the flash point was found to be 50.5 °C. The molecule `C=CCCCCC` [1-Heptene] registered a flash point of -8.0 °C. `CCCCCCN` [1-Hexanamine] registered a flash point of 27.0 °C.

In turn, `CCCCCCS` [1-Hexanethiol] had a flash point of 32.5 °C. Same read-out and setting: in the case of `CCCCCCCCCO` [1-NONANOL] it was 95 °C; in that of `CCCCCCCCC=O` [1-Nonanal], 63.0 °C. Same read-out and setting: in the case of `CCCCCCCCCO` [1-Nonanol] it was 96.0 °C; in that of `C=CCCC` [1-PENTENE], -54 °C. In the case of `C=CCCCCCCCCCCCCC` [1-Pentadecene], the flash point stood at 112.0 °C. Consider `CCCC(C)CO` (stereo not drawn) [1-Pentanol, 2-methyl-], for which the flash point worked out at 50.0 °C. Still for that read-out and setting: in the case of `C=CC(C)CC` (stereo not drawn) [1-Pentene, 3-methyl-] it was -27.9 °C; in that of `CCCS` [1-Propanethiol], -19.9 °C; in that of `CCCCCCCCCCCO` [1-UNDECANOL], 115 °C. For the molecule `CCCCCCCCCCCO` [1-Undecanol], the flash point came to 113.0 °C. In turn, `CCC(C)(C)C(=O)O` [2,2-Dimethylbutyric acid] gave a flash point of 79.0 °C. Same read-out and setting: as for `Cc1ccc(O)c(C)c1` [2,4-Dimethylphenol], the figure is 95.0 °C.

The molecule `Cc1cccc(C)c1O` [2,6-Dimethylphenol] came in with a flash point of 85.0 °C. The molecule `CC(C)C(C)O` (stereo not drawn) [2-Butanol, 3-methyl-] returned a flash point of 26.0 °C.

Turning to `CC=C(C)C` [2-Butene, 2-methyl-], the flash point was -44.9 °C.

Molecule `CCCCC(CC)CO` (stereo not drawn) [2-Ethylhexanol] displayed a flash point of 73 °C.

As to `CCCCC(C)O` (stereo not drawn) [2-HEXANOL], the flash point amounted to 46.2 °C. Regarding `CCCCCC(C)=O` [2-Heptanone], the flash point is 39.0 °C.

In turn, `CCCCC(C)O` (stereo not drawn) [2-Hexanol] displayed a flash point of 45.0 °C.

The molecule `CC(C)CO` [2-Methyl-1-propanol] yielded a flash point of 29.2 °C.

For `CCC(O)CC` [3-PENTANOL], the flash point amounted to 27 °C. Molecule `CCC(C)(O)CC` [3-Pentanol, 3-methyl-] gave a flash point of 24.0 °C. Regarding `CCC(O)CC` [3-Pentanol], the flash point was 30.0 °C. Take `CCCCCC(=O)CCCCC` [6-Undecanone]: the flash point was 88.4 °C. The same measure, in the same setting: as for `CCCCCOC(C)=O` [Amyl acetate], the figure is 37.0 °C; as for `Nc1ccccc1` [Aniline], 71.0 °C. Same read-out and setting: as for `CNc1ccccc1` [Benzenamine, N-methyl-], the figure is 78 °C; as for `CCCCS` [Butanethiol], 1.0 °C; as for `CCCCC1CCCCC1` [Cyclohexane, butyl-], 52.5 °C. Still for that read-out and setting: as for `NC1CCCC1` [Cyclopentanamine], the figure is 11.5 °C.

Take `CCC1CCCC1` [Cyclopentane, ethyl-]: the flash point was -0.0 °C. As for `CCCCCCCCCC(=O)O` [Decanoic acid], the flash point was determined as 148.0 °C.

The molecule `CC(C)NC(C)C` [Diisopropylamine] displayed a flash point of -7.0 °C. For `CNC` [Dimethylamine], the flash point is -49.9 °C. The same measure, in the same setting: in the case of `CCCNCCC` [Dipropylamine] it was 7.5 °C; in that of `CCOCCOCCO` [Ethanol, 2-(2-ethoxyethoxy)-], 90.0 °C. Molecule `COCCO` [Ethanol, 2-methoxy-] registered a flash point of 39.0 °C. `CCCCCC#N` [HEXANENITRILE]: the flash point was found to be 47 °C. Still for that read-out and setting: as for `CCCCCC(C)C` [Heptane, 2-methyl-], the figure is 6.0 °C.

On to `CCCCC(CC)CC` [Heptane, 3-ethyl-], for which the flash point turned out to be 23.0 °C. Take `CCCCCCC(=O)O` [Heptanoic acid]: the flash point came out at 115.0 °C. As for `CCCC(CC)CC` [Hexane, 3-ethyl-], the flash point came out at 5 °C. Take `CCCCCC#N` [Hexanenitrile]: the flash point was 43.0 °C.

Take `CCCCC(CC)C(=O)O` (stereo not drawn) [Hexanoicacid, 2-ethyl-]: the flash point was 110.0 °C. `CN(C)c1ccccc1` [N,N-DIMETHYLANILINE] showed a flash point of 62.0 °C.

On to `CN(C)c1ccccc1` [N,N-Dimethylaniline], for which the flash point amounted to 75.0 °C. Consider `CCCCCCC(C)CC` (stereo not drawn) [Nonane, 3-methyl-], for which the flash point was 46.0 °C. `CCCCCC(C)CCC` (stereo not drawn) [Nonane, 4-methyl-] gave a flash point of 44.0 °C. Turning to `CCCCC(C)CCCC` [Nonane, 5-methyl-], the flash point was found to be 39 °C.

Molecule `CCCCCCCC=O` [Octanal] yielded a flash point of 51.0 °C. The molecule `CCCCC(C)CCC` (stereo not drawn) [Octane, 4-methyl-] returned a flash point of 23.0 °C. For the molecule `CCCCCCCC` [Octane], the flash point stood at 14.0 °C. Still for that read-out and setting: as for `CCCCCCCC(=O)O` [Octanoic acid], the figure is 127.0 °C. Consider `Oc1ccccc1` [PHENOL], for which the flash point was 80 °C. Turning to `CCc1ccccc1O` [Phenol, 2-ethyl-], the flash point is 85.0 °C. `CCCOCC` [Propane, 1-ethoxy-] showed a flash point of -19.9 °C. As for `CCCOC(C)=O` [Propyl acetate], the flash point was found to be 10.6 °C. For `Cc1ccccn1` [Pyridine, 2-methyl-], the flash point is 26.0 °C. On the same count and under the same terms, in the case of `Cc1ccncc1` [Pyridine, 4-methyl-] it was 39.0 °C; in that of `Cc1ccccc1` [TOLUENE], 4.0 °C; in that of `CCN(CC)CC` [TRIETHYLAMINE], -15.0 °C. Molecule `Cc1ccccc1` [Toluene] gave a flash point of 6.0 °C. Molecule `CCCCCCCCCCCCC` [Tridecane] showed a flash point of 90.0 °C. In turn, `CCN(CC)CC` [Triethylamine] gave a flash point of -11.0 °C. For the molecule `CCc1cccc(C)c1` [m-Ethyltoluene], the flash point was found to be 38.0 °C. Still for that read-out and setting: in the case of `CCC(C)N` (stereo not drawn) [sec-BUTYLAMINE] it was -28.8 °C. As to `CCC(C)N` (stereo not drawn) [sec-Butylamine], the flash point is -18.9 °C.

This is another data set of the same source.
Consider `Nc1ccccc1` [Aniline], for which the flash point came to 70.00 °C. In turn, `CCCCCCCC(=O)O` [Octanoic acid] displayed a flash point of 132.00 °C. Take `Cc1ccccc1` [Toluene]: the flash point is 4.40 °C.
